Assay results taken from patent US10450311B2, “Pesticidally active heterocyclic derivatives with sulphur containing substituents” (Syngenta Participations AG, priority 2014, dated 2019).

Columns and labels:
Assay type in all cases: in vivo
[1] = system: Aedes aegypti (Yellow Fever Mosquito); test: whole plant or invertebrate; conditions: 48 h, test rate of 5 ppm, L2 larvae in 96-well plates, incubation period of 2 days, read-out: effect in at least one of the two categories (mortality or growth inhibition)
Description: Example B14: Activity Against Aedes aegypti (Yellow Fever Mosquito)
10 to 15 Aedes larvae (L2) together with a nutrition mixture were placed in 96-well microtiter plates. Test compounds were pipetted into the wells. After an incubation period of 2 days insects were assessed for mortality and growth inhibition.

[2] = system: Diabrotica balteata (Corn Root Worm); test: Activity against Diabrotica balteata, sprayed maize sprouts; conditions: 96 h, application rate of 200 ppm, larvae on maize sprouts, 4 days after infestation
Description: Example B2: Activity Against Diabrotica balteata (Corn Root Worm)
Maize sprouts, placed on an agar layer in 24-well microtiter plates were treated with aqueous test solutions prepared from 10′000 ppm DMSO stock solutions by spraying. After drying, the plates were infested with […] (6 to 10 per well). The samples were assessed for mortality 4 days after infestation.

[3] = system: Myzus persicae (Green Peach Aphid); test: Activity against Myzus persicae, sprayed sunflower leaf discs; conditions: foliar, 144 h, application rate of 200 ppm, aphid population of mixed ages on sunflower leaf discs, 6 days after infestation
Description: Example B5: Activity Against Myzus persicae (Green Peach Aphid)
(§1) Sunflower leaf discs were placed on agar in a 24-well microtiter plate and sprayed with aqueous test solutions prepared from 10′000 ppm DMSO stock solutions. After drying, the leaf discs were infested with an aphid population of mixed ages. The samples were assessed for mortality 6 days after infestation.

[4] = system: Spodoptera littoralis (Egyptian Cotton Leaf Worm); test: Activity against Spodoptera littoralis, sprayed cotton leaf discs; conditions: foliar, 72 h, application rate of 200 ppm, L1 larvae on cotton leaf discs, 3 days after infestation, read-out: control (at least one of mortality, anti-feedant effect, growth inhibition)
Description: Example B9: Activity Against Spodoptera littoralis (Egyptian Cotton Leaf Worm)
Cotton leaf discs were placed on agar in 24-well microtiter plates and sprayed with aqueous test solutions prepared from 10′000 ppm DMSO stock solutions. After drying the leaf discs were infested with five L1 larvae. The samples were assessed for mortality, anti-feedant effect, and growth inhibition in comparison to untreated samples 3 days after infestation. Control of Spodoptera littoralis by a test sample is when at least one of mortality, anti-feedant effect, and growth inhibition is higher than the untreated sample.

[5] = system: Euschistus heros (Neotropical Brown Stink Bug); test: Activity against Euschistus heros, sprayed soybean leaf; conditions: 120 h, application rate of 200 ppm, N-2 nymphs on soybean leaf, 5 days after infestation
Description: Example B3: Activity Against Euschistus heros (Neotropical Brown Stink Bug)
Soybean leaf on agar in 24-well microtiter plates were sprayed with aqueous test solutions prepared from 10′000 ppm DMSO stock solutions. After drying the leaf were infested with N-2 nymphs. The samples were assessed for mortality 5 days after infestation.

[6] = system: Bemisia tabaci (Cotton White Fly); test: Activity against Bemisia tabaci, sprayed cotton leaf discs; conditions: foliar, 144 h, application rate of 200 ppm, adult white flies on cotton leaf discs, 6 days after incubation
Description: Example B1: Activity Against Bemisia tabaci (Cotton White Fly)
Cotton leaf discs were placed on agar in 24-well microtiter plates and sprayed with aqueous test solutions prepared from 10′000 ppm DMSO stock solutions. After drying the leaf discs were infested with adult white flies. The samples were checked for mortality 6 days after incubation. […] A35, A36 and A47. A1. A2, A3, A8, A10, A14 and A12.

[7] = system: Plutella xylostella (Diamond Back Moth); test: Activity against Plutella xylostella, treated artificial diet; conditions: 120 h, application rate of 200 ppm, L2 larvae on artificial diet, 5 days after infestation, read-out: effect in at least one of the two categories (mortality or growth inhibition)
Description: Example B8: Activity Against Plutella xylostella (Diamond Back Moth)
24-well microtiter plates with artificial diet were treated with aqueous test solutions prepared from 10′000 ppm DMSO stock solutions by pipetting. After drying, the plates were infested with L2 larvae (10 to 15 per well). The samples were assessed for mortality and growth inhibition in comparison to untreated samples 5 days after infestation.

[8] = system: Myzus persicae (Green Peach Aphid); test: Activity against Myzus persicae, sucrose solution under Parafilm; conditions: 120 h, test rate of 12 ppm, mixed with sucrose solution, 5 days after infestation
Description: Example B7: Activity Against Myzus persicae (Green Peach Aphid)
Test compounds from 10′000 ppm DMSO stock solutions were applied by pipette into 24-well microtiter plates and mixed with sucrose solution. The plates were closed with a stretched Parafilm. A plastic stencil with 24 holes was placed onto the plate and infested pea seedlings were placed directly on the Parafilm. The infested plate was closed with a gel blotting paper and another plastic stencil and then turned upside down. The samples were assessed for mortality 5 days after infestation. […] A30 and A32.

[9] = system: Myzus persicae (Green Peach Aphid); test: Activity against Myzus persicae, roots of infested pea seedlings in test solution; conditions: 144 h, test rate of 24 ppm, 6 days
Description: Example B6: Activity Against Myzus persicae (Green Peach Aphid)
Roots of pea seedlings infested with an aphid population of mixed ages were placed directly in the aqueous test solutions prepared from 10′000 DMSO stock solutions. The samples were assessed for mortality 6 days after placing seedlings in test solutions.

[10] = system: Frankliniella occidentalis (Western Flower Thrips); test: Activity against Frankliniella occidentalis, sprayed sunflower leaf discs; conditions: foliar, 168 h, application rate of 200 ppm, population of mixed ages on sunflower leaf discs, 7 days after infestation
Description: Example B4: Activity Against Frankliniella occidentalis (Western Flower Thrips)
as §1, with “in” for “in a”, “plates” for “plate”, “[…]” for “10′000 ppm”, “drying” for “drying,”, “a Frankliniella” for “an aphid”, “7” for “6”

[11] = system: Spodoptera littoralis (Egyptian Cotton Leaf Worm); test: Activity against Spodoptera littoralis, systemic activity; conditions: 144 h, test rate of 12.5 ppm, in agar, lettuce root uptake, 6 days after infestation
Description: Example B11: Activity Against Spodoptera littoralis (Egyptian Cotton Leaf Worm), Systemic Activity
(§2) Test compounds were applied by pipette from 10′000 ppm DMSO stock solutions into 24-well plates and mixed with agar. Lettuce seeds were placed on the agar and the multi well plate was closed by another plate which contains also agar. After 7 days the roots have absorbed the compound and the lettuce has grown into the lid plate. The lettuce leafs were now cut off into the lid plate. Spodoptera eggs were pipetted through a plastic stencil on a humid gel blotting paper and the plate closed with it. The samples were assessed for mortality 6 days after infestation.

[12] = system: Spodoptera littoralis (Egyptian Cotton Leaf Worm); test: Activity against Spodoptera littoralis, compound in agar taken up by lettuce; conditions: 144 h, test rate of 12.5 ppm, lettuce root uptake, 6 days after infestation, read-out: effect in at least one of the three categories (mortality, anti-feedancy, or growth inhibition)
Description: Example B10: Activity Against Spodoptera littoralis (Egyptian Cotton Leaf Worm)
as §2, with “mortality, anti-feedant effect and growth inhibition in comparison to untreated samples” for “mortality”

[13] = system: Thrips tabaci (Onion Thrips); test: Activity against Thrips tabaci, feeding/contact activity; conditions: foliar, 144 h, application rate of 200 ppm, thrips population of mixed ages on sunflower leaf discs, 6 days after infestation
Description: Example B13: Activity Against Thrips tabaci (Onion Thrips) Feeding/Contact Activity
as §1, with “in” for “in a”, “plates” for “plate”, “drying” for “drying,”, “a thrips” for “an aphid”

CCn1c(C(F)(F)F)cc2nc(-c3ncc(C(F)(F)F)cc3S(=O)(=O)CC)n(C)c2c1=O [Compound A2]
≥ 80%: percent effect (mortality or growth inhibition) at 5 ppm [1] | mortality at 200 ppm [2] | mortality at 200 ppm [3] | percent control (mortality, anti-feedant effect or growth inhibition) at 200 ppm [4] | mortality at 200 ppm [5] | mortality at 200 ppm [6] | percent effect (mortality or growth inhibition) at 200 ppm [7]

CCS(=O)(=O)c1cc(C(F)(F)F)cnc1-c1nc2cc(C(F)(F)F)n(Cc3ccccc3)c(=O)c2n1C [Compound A4, 5-benzyl-2-[3-ethylsulfonyl-5-(trifluoromethyl)-2-pyridyl]-3-methyl-6-(trifluoromethyl)imidazo[4,5-c]pyridin-4-one]
≥ 80%: mortality at 200 ppm [2] | percent control (mortality, anti-feedant effect or growth inhibition) at 200 ppm [4] | mortality at 12 ppm [8] | percent effect (mortality or growth inhibition) at 200 ppm [7]

CCS(=O)(=O)c1cc(C2CC2)cnc1-c1nc2cc(C(F)(F)F)n(C)c(=O)c2n1C [Compound A23]
≥ 80%: percent effect (mortality or growth inhibition) at 5 ppm [1] | mortality at 24 ppm [9] | mortality at 200 ppm [2] | mortality at 200 ppm [3] | mortality at 200 ppm [10] | percent control (mortality, anti-feedant effect or growth inhibition) at 200 ppm [4] | mortality at 200 ppm [5] | mortality at 12.5 ppm [11] | percent effect (mortality or growth inhibition) at 200 ppm [7]

CCn1c(C(F)(F)F)cc2nc(-c3ncc(Br)cc3S(=O)(=O)CC)n(C)c2c1=O [Compound A31, 2-(5-bromo-3-ethylsulfonyl-2-pyridyl)-5-ethyl-3-methyl-6-(trifluoromethyl)imidazo[4,5-c]pyridin-4-one]
≥ 80%: percent effect (mortality or growth inhibition) at 5 ppm [1] | mortality at 200 ppm [2] | mortality at 200 ppm [3] | percent control (mortality, anti-feedancy or growth inhibition) at 12.5 ppm [12] | percent control (mortality, anti-feedant effect or growth inhibition) at 200 ppm [4] | mortality at 200 ppm [5] | mortality at 200 ppm [6] | mortality at 12.5 ppm [11] | percent effect (mortality or growth inhibition) at 200 ppm [7]

CCn1c(C(F)(F)F)cc2nc(-c3ncc(-c4ccc(C(F)(F)F)cc4)cc3S(=O)(=O)CC)n(C)c2c1=O [Compound A35, 5-ethyl-2-[3-ethylsulfonyl-5-[4-(trifluoromethyl)phenyl]-2-pyridyl]-3-methyl-6-(trifluoromethyl)imidazo[4,5-c]pyridin-4-one]
≥ 80%: mortality at 200 ppm [2] | mortality at 200 ppm [3] | percent control (mortality, anti-feedant effect or growth inhibition) at 200 ppm [4] | mortality at 200 ppm [5] | mortality at 200 ppm [6] | mortality at 12.5 ppm [11] | percent effect (mortality or growth inhibition) at 200 ppm [7]

CCS(=O)(=O)c1cc(C(F)(F)C(F)(F)F)cnc1-c1nc2cc(C(F)(F)F)n(C)c(=O)c2n1C [Compound A46, 2-[3-ethylsulfonyl-5-(1,1,2,2,2-pentafluoroethyl)-2-pyridyl]-3,5-dimethyl-6-(trifluoromethyl)imidazo[4,5-c]pyridin-4-one]
≥ 80%: percent effect (mortality or growth inhibition) at 5 ppm [1] | mortality at 200 ppm [2] | mortality at 200 ppm [13] | mortality at 200 ppm [3] | percent control (mortality, anti-feedancy or growth inhibition) at 12.5 ppm [12] | mortality at 200 ppm [10] | percent control (mortality, anti-feedant effect or growth inhibition) at 200 ppm [4] | mortality at 200 ppm [5] | mortality at 12.5 ppm [11] | percent effect (mortality or growth inhibition) at 200 ppm [7]

CCS(=O)(=O)c1cc(C(F)(F)F)ccc1-c1nc2cc(C(F)(F)F)n(C)c(=O)c2n1C [Compound A73, 2-[2-ethylsulfonyl-4-(trifluoromethyl)phenyl]-3,5-dimethyl-6-(trifluoromethyl)imidazo[4,5-c]pyridin-4-one]
≥ 80%: percent effect (mortality or growth inhibition) at 5 ppm [1] | mortality at 24 ppm [9] | mortality at 200 ppm [2] | mortality at 200 ppm [3] | percent control (mortality, anti-feedancy or growth inhibition) at 12.5 ppm [12] | percent control (mortality, anti-feedant effect or growth inhibition) at 200 ppm [4] | mortality at 200 ppm [5] | mortality at 12.5 ppm [11] | percent effect (mortality or growth inhibition) at 200 ppm [7]

CCSc1cc(C(F)(F)F)cnc1-c1nc2cc(C(F)(F)F)c(=O)n(C)c2n1C [Compound B1, 2-[3-ethylsulfanyl-5-(trifluoromethyl)-2-pyridyl]-3,4-dimethyl-6-(trifluoromethyl)imidazo[4,5-b]pyridin-5-one]
≥ 80%: mortality at 200 ppm [3] | mortality at 12 ppm [8]

CCS(=O)(=O)c1cc(C(F)(F)F)cnc1-c1nc2cc(C(F)(F)F)c(=O)n(C)c2n1C [Compound B2, 2-[3-ethylsulfonyl-5-(trifluoromethyl)-2-pyridyl]-3,4-dimethyl-6-(trifluoromethyl)imidazo[4,5-b]pyridin-5-one]
≥ 80%: mortality at 24 ppm [9] | mortality at 200 ppm [2] | mortality at 200 ppm [3] | mortality at 200 ppm [5] | mortality at 200 ppm [6] | mortality at 12 ppm [8]
